These are literature values, as cited in patent publication US8952001B2, “Amino-heteroaryl derivatives as HCN blockers” (Merck Sharp & Dohme Corp., priority 2009, dated 2015).

Molecules are shown by their SMILES. Like-named read-outs stand apart in the source and are kept apart here.

The subject of series [1] is mechanical allodynia. The settings on record: local administration to the sciatic nerve 4 h after surgery in rats; Brennan model.
For series [2], the system named is spontaneous pain. The settings on record: rat, mild thermal injury model.
In series [3] the test system is nerve injured myelinated DRG.
Series [4] has as its system allodynia. The settings on record: rat CFA model of inflammatory pain.
For series [5], the system named is ectopic discharges in A-beta and A-delta fibres. Conditions: without causing conduction block.
Series [6] deals with mechanical allodynia. The settings on record: intraperitoneal administration; Chung/von Frey.

Turning to `CCN(c1ccccc1)c1cc(=NC)n(C)c(C)n1.Cl` [ZD 7288], the mechanical allodynia entry in series [1] is on record as “attenuates mechanical allodynia”; in series [6], “dose-dependently reverses mechanical allodynia”. The spontaneous pain result in series [2] is recorded as “blocks spontaneous pain”. The spontaneous activity result in series [3] was “reduces spontaneous activity”. The allodynia result in series [4] is recorded as “suppresses allodynia”. For the same molecule, in series [5], the “firing frequency of ectopic discharges” value was “reduced the firing frequency of ectopic discharges”.
